{"source": "paper PMC12396559", "about": "(Virus Research, 2025)", "key": {"MPXV^Zr-599 (Clade I)": {"tested_on": "MPXV^Zr-599 (Clade I)", "experiment": "microbe, parasite or virus in culture", "type": "cell-based", "conditions": "Monkeypox virus, Vero C1008, 120 h, read-out: EC50 against MPXV^Zr-599"}, "VeroE6 cells [1]": {"tested_on": "VeroE6 cells"}, "MPXV^Liberia (Clade IIa)": {"tested_on": "MPXV^Liberia (Clade IIa)", "experiment": "microbe, parasite or virus in culture", "type": "cell-based", "conditions": "Monkeypox virus, Vero C1008, 120 h, read-out: EC50 against MPXV^Liberia"}, "HeLa cells": {"tested_on": "HeLa cells", "conditions": "for concentration at which the agent showed cytotoxicity, reducing the number of cells: human"}, "VeroE6 cells [2]": {"tested_on": "VeroE6 cells", "remark": "listed apart in the source"}, "Huh7 cells": {"tested_on": "Huh7 cells", "conditions": "for concentration at which the agent showed cytotoxicity, reducing the number of cells: human"}, "MPXV^SPL2A7 (Clade IIb)": {"tested_on": "MPXV^SPL2A7 (Clade IIb)", "experiment": "microbe, parasite or virus in culture", "type": "cell-based", "conditions": "Monkeypox virus, Vero C1008, 120 h, read-out: EC50 against MPXV^SPL2A7"}, "in vitro [3]": {"experiment": "in vitro", "conditions": "human"}, "in vitro [4]": {"experiment": "in vitro", "conditions": "human", "remark": "listed apart in the source"}, "clade II mpox": {"tested_on": "clade II mpox", "conditions": "human, in vivo; cited from earlier work"}, "clade I mpox": {"tested_on": "clade I mpox", "conditions": "human, in vivo; cited from earlier work"}, "in vitro [5]": {"experiment": "in vitro", "conditions": "African green monkey"}}, "data": [{"smiles": "CCCCCCCCCCCCCCCCOCCCOP(=O)(O)CO[C@H](CO)Cn1ccc(N)nc1=O", "note": "[Brincidofovir, brincidofovir]", "values": [{"measurement": "EC50", "setting": "MPXV^Zr-599 (Clade I)", "result": "2130 ± 950", "unit": "nM"}, {"measurement": "amount of F-actin (images)", "setting": "VeroE6 cells [1]", "result": "markedly reduced"}, {"measurement": "protein production (F-actin quantification), in words", "setting": "VeroE6 cells [1]", "result": "virtually totally blocked"}, {"measurement": "EC50", "setting": "MPXV^Liberia (Clade IIa)", "result": "2010 ± 850", "unit": "nM"}, {"measurement": "concentration at which the agent showed cytotoxicity, reducing the number of cells", "setting": "HeLa cells", "result": "10 to 100", "unit": "µM"}, {"measurement": "cell number on day 5 subtracted with cell number on Day 0", "setting": "VeroE6 cells [2]", "result": "below zero"}, {"measurement": "concentration at which the agent showed cytotoxicity, reducing the number of cells", "setting": "Huh7 cells", "result": "10 to 100", "unit": "µM"}, {"measurement": "EC50", "setting": "MPXV^SPL2A7 (Clade IIb)", "result": "2030 ± 320", "unit": "nM"}]}, {"smiles": "Nc1ccn(C[C@@H](CO)OCP(=O)(O)O)c(=O)n1", "note": "[Cidofovir, cidofovir]", "values": [{"measurement": "EC50", "setting": "MPXV^Zr-599 (Clade I)", "result": "17300 ± 5030", "unit": "nM"}, {"measurement": "protein production (F-actin quantification), in words", "setting": "VeroE6 cells [1]", "result": "virtually totally blocked"}, {"measurement": "CC50", "setting": "in vitro [3]", "result": "> 100000", "unit": "nM"}, {"measurement": "EC50", "setting": "MPXV^Liberia (Clade IIa)", "result": "15200 ± 3020", "unit": "nM"}, {"measurement": "concentration at which the agent showed cytotoxicity, reducing the number of cells", "setting": "HeLa cells", "result": 100, "unit": "µM"}, {"measurement": "cell number on day 5 subtracted with cell number on Day 0", "setting": "VeroE6 cells [2]", "result": "below zero"}, {"measurement": "CC50", "setting": "in vitro [4]", "result": "> 100000", "unit": "nM"}, {"measurement": "concentration at which the agent showed cytotoxicity, reducing the number of cells", "setting": "Huh7 cells", "result": 100, "unit": "µM"}, {"measurement": "EC50", "setting": "MPXV^SPL2A7 (Clade IIb)", "result": "12200 ± 1190", "unit": "nM"}]}, {"smiles": "Nc1ccn([C@@H]2O[C@H](CO)[C@@H](O)C2(F)F)c(=O)n1", "note": "[Gemcitabine, gemcitabine]", "values": [{"measurement": "EC50", "setting": "MPXV^Zr-599 (Clade I)", "result": "20 ± 20", "unit": "nM"}, {"measurement": "amount of F-actin (images)", "setting": "VeroE6 cells [1]", "result": "greatly reduced"}, {"measurement": "protein production (F-actin quantification), in words", "setting": "VeroE6 cells [1]", "result": "totally blocked"}, {"measurement": "EC50", "setting": "MPXV^Liberia (Clade IIa)", "result": "10 ± 10", "unit": "nM"}, {"measurement": "number of cells (DAPI)", "setting": "VeroE6 cells [2]", "result": "significant reduction"}, {"measurement": "EC50", "setting": "MPXV^SPL2A7 (Clade IIb)", "result": "20 ± 20", "unit": "nM"}]}, {"smiles": "O=C(NN1C(=O)[C@@H]2[C@@H]3C=C[C@@H]([C@H]4C[C@@H]34)[C@@H]2C1=O)c1ccc(C(F)(F)F)cc1", "note": "[Tecovirimat, tecovirimat]", "values": [{"measurement": "clinical efficacy", "setting": "clade II mpox", "result": "no significant efficacy"}, {"measurement": "EC50", "setting": "MPXV^Zr-599 (Clade I)", "result": "5 ± 1", "unit": "nM"}, {"measurement": "suppression of protein production (F-actin quantification)", "setting": "VeroE6 cells [1]", "result": "about 50%"}, {"measurement": "CC50", "setting": "in vitro [3]", "result": "> 100000", "unit": "nM"}, {"measurement": "EC50", "setting": "MPXV^Liberia (Clade IIa)", "result": "4 ± 2", "unit": "nM"}, {"measurement": "concentration at which production of virally-encoded proteins was blocked (and above)", "setting": "MPXV^SPL2A7", "result": "≥ 0.01", "unit": "µM"}, {"measurement": "number of the cells (nuclei stained with DAPI)", "setting": "MPXV^SPL2A7", "result": "no significant reduction"}, {"measurement": "cytostaticity and/or cytotoxicity (in words)", "setting": "HeLa cells", "result": "without cytostaticity and/or cytotoxicity"}, {"measurement": "CC50", "setting": "in vitro [4]", "result": "> 100000", "unit": "nM"}, {"measurement": "cytostaticity and/or cytotoxicity (in words)", "setting": "Huh7 cells", "result": "without cytostaticity and/or cytotoxicity"}, {"measurement": "duration of mpox lesions", "setting": "clade I mpox", "result": "failed to shorten the duration of mpox lesions"}, {"measurement": "EC50", "setting": "MPXV^SPL2A7 (Clade IIb)", "result": "1 ± 2", "unit": "nM"}, {"measurement": "CC50", "setting": "in vitro [5]", "result": "> 100000", "unit": "nM"}]}, {"smiles": "O=c1[nH]c(=O)n([C@H]2C[C@H](O)[C@@H](CO)O2)cc1C(F)(F)F", "note": "[Trifluridine, trifluridine]", "values": [{"measurement": "EC50", "setting": "MPXV^Zr-599 (Clade I)", "result": "3710 ± 1450", "unit": "nM"}, {"measurement": "EC50", "setting": "MPXV^Liberia (Clade IIa)", "result": "3480 ± 1820", "unit": "nM"}, {"measurement": "EC50", "setting": "MPXV^SPL2A7 (Clade IIb)", "result": "6170 ± 1260", "unit": "nM"}]}]}
